Results taken from patent US12686673B2 (Blueprint Medicines Corporation, priority 2020, dated 2026).
Counter-ions that a name gives are not always drawn.

How the values were obtained:
Type in all cases: cell-based
A431 cells = assay: Cellular proliferation (Alamar Blue) assay, A431; conditions: Homo sapiens, A-431; A431 cells, Alamar Blue, 72 hr; read-out: A431 IC50
Protocol: (§1) • 1. EGFR(D770_N771insSVD) expressing Ba/F3 stable cell line • 2. EGFR (A767_dupASV) expressing Ba/F3 stable cell line • 3. A431 cells • 4. EGFR (H773insNPH) expressing Ba/F3 stable cell line • 5. HER2 (A775_G776insYVMA) expressing Ba/F3 stable cell line Assay Procedure: • 1. Seed cells at 5000 for A431 and 15,000 cells for Ba/F3 in 100 μL/well in complete media (for A431: DMEM with […] and for Ba/F3 cells: RPMI with 10% FBS) in 96-well tissue culture plate. Leave outer wells without cells for background measurements. Incubate at 37 degree Celsius in […] humidified incubator for 16-18 hours. • 2. Add 0.025 ml of 5× concentration compound dilution or DMSO control. Final compound concentration range is 10-0.0005 μM prepared in 3-fold serial dilutions. Incubate for 72 hr at 37 degree Celsius in […] humidified incubator. • 3. Add 0.0125 ml Alamar Blue™ reagent to each well with multi-channel pipette and tap gently on each side of the plate to mix. Incubate for 3 hours at 37 degree Celsius in 5% CO2 humidified incubator. • 4. […] Data analysis was performed using XLfit 5.5.0.5.

[1] = target: EGFR(D770_N771insSVD) expressing Ba/F3 stable cell line (Homo sapiens, UniProt P00533, DUP768-770, cells depend on it); assay: Cellular proliferation (Alamar Blue) assay, EGFR D770_N771insSVD Ba/F3; conditions: 72 hr, read-out: D770 IC50
Protocol: as §1

[2] = target: EGFR (A767_dupASV) expressing Ba/F3 stable cell line (Homo sapiens, UniProt P00533, DUP767-769, cells depend on it); assay: Cellular proliferation (Alamar Blue) assay, EGFR A767_dupASV Ba/F3; conditions: 72 hr, read-out: A767 IC50
Protocol: as §1

EGFR(D770_N771insSVD) expressing Ba/F3 stable cell line, sequence (P00533 with tags, fused parts or gaps DUP768-770): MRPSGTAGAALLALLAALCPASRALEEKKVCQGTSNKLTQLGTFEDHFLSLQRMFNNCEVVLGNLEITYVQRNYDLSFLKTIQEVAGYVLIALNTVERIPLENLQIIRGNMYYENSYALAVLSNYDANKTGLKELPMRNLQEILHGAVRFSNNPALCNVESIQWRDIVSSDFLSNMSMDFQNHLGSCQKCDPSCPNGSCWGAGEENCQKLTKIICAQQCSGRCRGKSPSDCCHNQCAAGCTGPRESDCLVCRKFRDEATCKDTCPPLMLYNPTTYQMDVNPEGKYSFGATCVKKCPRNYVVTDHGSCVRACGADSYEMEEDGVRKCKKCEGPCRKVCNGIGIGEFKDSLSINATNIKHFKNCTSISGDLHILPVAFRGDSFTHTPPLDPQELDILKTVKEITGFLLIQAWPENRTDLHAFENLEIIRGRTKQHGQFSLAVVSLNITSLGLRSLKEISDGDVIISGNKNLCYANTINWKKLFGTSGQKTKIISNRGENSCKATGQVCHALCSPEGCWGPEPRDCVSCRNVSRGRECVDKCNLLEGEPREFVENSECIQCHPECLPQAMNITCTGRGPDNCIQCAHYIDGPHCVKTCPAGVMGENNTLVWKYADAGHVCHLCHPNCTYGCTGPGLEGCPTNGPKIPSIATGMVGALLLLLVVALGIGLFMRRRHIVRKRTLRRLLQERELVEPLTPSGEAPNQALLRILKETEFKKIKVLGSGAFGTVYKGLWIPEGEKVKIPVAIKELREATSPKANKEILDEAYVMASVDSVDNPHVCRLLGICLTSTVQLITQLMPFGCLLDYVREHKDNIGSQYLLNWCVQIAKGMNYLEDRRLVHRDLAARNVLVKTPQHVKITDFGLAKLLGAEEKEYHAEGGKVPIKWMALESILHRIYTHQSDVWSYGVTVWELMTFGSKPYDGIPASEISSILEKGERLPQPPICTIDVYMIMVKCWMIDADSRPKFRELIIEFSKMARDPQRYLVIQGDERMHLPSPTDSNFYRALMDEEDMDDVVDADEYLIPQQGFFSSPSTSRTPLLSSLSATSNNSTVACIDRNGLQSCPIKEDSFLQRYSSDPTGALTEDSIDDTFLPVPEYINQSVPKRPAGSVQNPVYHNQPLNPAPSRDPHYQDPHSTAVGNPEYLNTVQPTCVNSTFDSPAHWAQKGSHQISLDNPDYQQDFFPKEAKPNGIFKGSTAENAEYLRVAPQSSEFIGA
EGFR (A767_dupASV) expressing Ba/F3 stable cell line, sequence (P00533 with tags, fused parts or gaps DUP767-769): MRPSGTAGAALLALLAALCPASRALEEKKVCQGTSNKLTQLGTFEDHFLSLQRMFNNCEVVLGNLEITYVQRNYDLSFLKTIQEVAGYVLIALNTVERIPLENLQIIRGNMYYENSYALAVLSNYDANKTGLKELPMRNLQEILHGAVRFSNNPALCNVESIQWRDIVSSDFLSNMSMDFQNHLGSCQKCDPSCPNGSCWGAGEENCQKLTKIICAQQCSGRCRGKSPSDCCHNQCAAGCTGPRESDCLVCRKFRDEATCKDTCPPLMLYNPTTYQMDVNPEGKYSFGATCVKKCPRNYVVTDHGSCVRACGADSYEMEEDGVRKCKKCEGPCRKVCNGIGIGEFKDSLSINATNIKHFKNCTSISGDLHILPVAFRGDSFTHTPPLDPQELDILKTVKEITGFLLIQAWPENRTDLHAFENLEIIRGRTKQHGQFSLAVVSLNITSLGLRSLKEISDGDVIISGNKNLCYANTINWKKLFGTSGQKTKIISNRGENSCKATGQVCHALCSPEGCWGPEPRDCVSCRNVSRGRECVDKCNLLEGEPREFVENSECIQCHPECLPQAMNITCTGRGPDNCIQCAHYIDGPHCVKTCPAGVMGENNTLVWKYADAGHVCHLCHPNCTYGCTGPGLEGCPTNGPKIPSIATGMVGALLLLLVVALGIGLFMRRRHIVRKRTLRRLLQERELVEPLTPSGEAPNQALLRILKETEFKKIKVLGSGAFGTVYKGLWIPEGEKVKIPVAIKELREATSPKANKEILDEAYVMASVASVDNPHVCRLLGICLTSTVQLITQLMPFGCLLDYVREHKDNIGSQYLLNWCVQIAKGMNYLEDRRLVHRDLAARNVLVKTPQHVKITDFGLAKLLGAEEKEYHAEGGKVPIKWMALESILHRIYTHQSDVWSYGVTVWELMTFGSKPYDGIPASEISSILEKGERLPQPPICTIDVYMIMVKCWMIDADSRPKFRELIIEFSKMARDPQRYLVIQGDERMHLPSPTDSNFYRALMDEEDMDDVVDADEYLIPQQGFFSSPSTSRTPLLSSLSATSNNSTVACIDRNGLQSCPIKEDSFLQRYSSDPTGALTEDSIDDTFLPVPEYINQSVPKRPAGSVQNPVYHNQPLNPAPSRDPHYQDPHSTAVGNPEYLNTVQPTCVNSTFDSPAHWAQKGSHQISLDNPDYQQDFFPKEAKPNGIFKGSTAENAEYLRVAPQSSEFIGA

Structure (SMILES) | IC50 (A431 cells) | GI50 [1] | GI50 [2]
C=CC(=O)Nc1ccc(F)c(Nc2nc(Nc3ccn(C)n3)ncc2-c2ccc(C(F)(F)F)cc2)c1 [Compound 113, N-(4-fluoro-3-((2-((1-methyl-1H-pyrazol-3-yl)amino)-5-(4-(trifluoromethyl)phenyl)pyrimidin-4-yl)amino)phenyl)acrylamide trifluoroacetate] | 0.201 µM | 0.317 µM | 0.263 µM
C=CC(=O)Nc1ccc(F)c(Nc2nc(Nc3cnn(C)c3)ncc2C2=CCN(C)CC2)c1 [Compound 114, N-(4-fluoro-3-((5-(1-methyl-1,2,3,6-tetrahydropyridin-4-yl)-2-((1-methyl-1H-pyrazol-4-yl)amino)pyrimidin-4-yl)amino)phenyl)acrylamide] | 0.816 µM | 1.84 µM | 0.964 µM
C=CC(=O)Nc1ccc(N(C)C)c(Nc2nc(Nc3cnn(C)c3)ncc2-c2ccc(C(F)(F)F)cc2)c1 [Compound 119, N-(4-(dimethylamino)-3-((2-((1-methyl-1H-pyrazol-4-yl)amino)-5-(4-(trifluoromethyl)phenyl)pyrimidin-4-yl)amino)phenyl)acrylamide trifluoroacetate] | > 10 µM | > 10 µM | > 10 µM
C=CC(=O)Nc1ccc(F)c(Nc2nc(Nc3cnn(C)c3)ncc2C2CC2)c1 [Compound 120, N-(3-((5-cyclopropyl-2-((1-methyl-1H-pyrazol-4-yl)amino)pyrimidin-4-yl)amino)-4-fluorophenyl)acrylamide trifluoroacetate] | 3.8 µM | 0.967 µM | 0.875 µM
C=CC(=O)Nc1ccc(F)c(Nc2nc(Nc3ccccc3)ncc2-c2ccc(C(F)(F)F)cc2)c1 [Compound 121, N-(4-fluoro-3-((2-(phenylamino)-5-(4-(trifluoromethyl)phenyl)pyrimidin-4-yl)amino)phenyl)acrylamide] | 1.28 µM | 2.87 µM | > 10 µM
C=CC(=O)Nc1ccc(F)c(Nc2nc(Nc3ccc(F)cc3)ncc2-c2ccc(C(F)(F)F)cc2)c1 [Compound 122, N-(4-fluoro-3-((2-((4-fluorophenyl)amino)-5-(4-(trifluoromethyl)phenyl)pyrimidin-4-yl)amino)phenyl)acrylamide trifluoroacetate] | 3.69 µM | 1.99 µM | > 10 µM
C=CC(=O)Nc1ccc(F)c(Nc2nc(Nc3cnn(C)c3)ncc2C2=CCOCC2)c1 [Compound 124, N-(3-((5-(3,6-dihydro-2H-pyran-4-yl)-2-((1-methyl-1H-pyrazol-4-yl)amino)pyrimidin-4-yl)amino)-4-fluorophenyl)acrylamide] | 1.53 µM | 0.328 µM | 0.284 µM
C=CC(=O)Nc1ccc(F)c(Nc2nc(Nc3cnn(C)c3)ncc2-c2cccc(CN(C)C)c2)c1 [Compound 134, N-(3-((5-(3-((dimethylamino)methyl)phenyl)-2-((1-methyl-1H-pyrazol-4-yl)amino)pyrimidin-4-yl)amino)-4-fluorophenyl)acrylamide] | 3.28 µM | > 10 µM | 8.41 µM
C=CC(=O)Nc1ccc(F)c(Nc2nc(Nc3cnn(C)c3)ncc2-c2ccc(S(N)(=O)=O)cc2)c1 [Compound 138, N-(4-fluoro-3-((2-((1-methyl-1H-pyrazol-4-yl)amino)-5-(4-sulfamoylphenyl)pyrimidin-4-yl)amino)phenyl)acrylamide] | > 10 µM | 3.14 µM | 2.88 µM
C=CC(=O)Nc1ccc(F)c(Nc2nc(Nc3cnn(C)c3)ncc2-c2cccc(OC(F)F)c2)c1 [Compound 143, N-(3-((5-(3-(difluoromethoxy)phenyl)-2-((1-methyl-1H-pyrazol-4-yl)amino)pyrimidin-4-yl)amino)-4-fluorophenyl)acrylamide trifluoroacetate] | 0.235 µM | 0.276 µM | 0.3 µM
C=CC(=O)Nc1ccc(F)c(Nc2nc(Nc3cnn(C)c3)ncc2-c2cccc(N(C)C)c2)c1 [Compound 145, N-(3-((5-(3-(dimethylamino)phenyl)-2-((1-methyl-1H-pyrazol-4-yl)amino)pyrimidin-4-yl)amino)-4-fluorophenyl)acrylamide] | 3.98 µM | 0.911 µM | 2.02 µM
C=CC(=O)Nc1ccc(F)c(Nc2nc(Nc3cnn(C)c3)cnc2Cl)c1 [Compound 153, N-(3-((3-chloro-6-((1-methyl-1H-pyrazol-4-yl)amino)pyrazin-2-yl)amino)-4-fluorophenyl)acrylamide] | > 10 µM | > 10 µM | > 10 µM
C=CC(=O)Nc1cccc(Oc2nc(Nc3cnn(C)c3)cnc2Cl)c1 [Compound 154, N-(3-((3-chloro-6-((1-methyl-1H-pyrazol-4-yl)amino)pyrazin-2-yl)oxy)phenyl)acrylamide] | > 10 µM | > 10 µM | > 10 µM
C=CC(=O)Nc1ccc(F)c(Nc2nc(Nc3cnn(C)c3)nnc2Cl)c1 [Compound 155, N-(3-((6-chloro-3-((1-methyl-1H-pyrazol-4-yl)amino)-1,2,4-triazin-5-yl)amino)-4-fluorophenyl)acrylamide] | 6.46 µM | 1.41 µM | 2.48 µM
C=CC(=O)Nc1ccc(C(=O)Nc2ccccc2)c(Nc2nc(Nc3cnn(C)c3)ncc2Cl)c1 [Compound 163, 2-({5-chloro-2-[(1-methyl-1H-pyrazol-4-yl)amino]pyrimidin-4-yl}amino)-N-phenyl-4-(prop-2-enamido) benzamide] | 8.25 µM | > 10 µM | 9.44 µM
C=CC(=O)Nc1ccc(C(F)(F)F)c(Oc2nc(Nc3cnn(C)c3)ncc2Cl)c1 [Compound 169, N-(3-((5-chloro-2-((1-methyl-1H-pyrazol-4-yl)amino)pyrimidin-4-yl)oxy)-4-(trifluoromethyl)phenyl)acrylamide] | 9.69 µM | > 10 µM | 8.95 µM
C=CC(=O)Nc1ccc(OC)c(Oc2nc(Nc3cnn(CCO)c3)ncc2Cl)c1 [Compound 171, N-(3-((5-chloro-2-((1-(2-hydroxyethyl)-1H-pyrazol-4-yl)amino)pyrimidin-4-yl)oxy)-4-methoxyphenyl)acrylamide] | > 10 µM | > 10 µM | > 10 µM
CN(C)C/C=C/C(=O)Nc1cccc(F)c1CNc1nc(Nc2cnn(C)c2)ncc1Cl [Compound 174, (E)-N-(2-(((5-chloro-2-((1-methyl-1H-pyrazol-4-yl)amino)pyrimidin-4-yl)amino)methyl)-3-fluorophenyl)-4-(dimethylamino)but-2-enamide] | > 10 µM | > 10 µM | > 10 µM
C=CC(=O)Nc1ccc(C#Cc2ccccc2)c(Nc2nc(Nc3cnn(C)c3)ncc2Cl)c1 [Compound 178, N-[3-({5-chloro-2-[(1-methyl-1H-pyrazol-4-yl)amino]pyrimidin-4-yl}amino)-4-(2-phenylethynyl)phenyl] prop-2-enamide] | 9.97 µM | > 10 µM | > 10 µM
C=CC(=O)Nc1ccc(F)c(Nc2nc(NC3CC3)ncc2-c2ccc(C(F)(F)F)cc2)c1 [Compound 180, N-(3-{[2-(cyclopropylamino)-5-[4-(trifluoromethyl)phenyl]pyrimidin-4-yl]amino}-4-fluorophenyl)prop-2-enamide] | > 10 µM | > 10 µM | > 10 µM
